This note sets out measurements from paper PMC4773034 (Journal of biomolecular screening, 2012).

Molecules are shown by their SMILES.

In the experiment the target is EndA(H160G) (Streptococcus pneumoniae serotype 4, UniProt P0A3S3, H160G). Kind of experiment: PicoGreen nuclease assay. In kind it is biochemical. To be noted: 25 mM imidazole, 30 min reaction, top concentration 30 µM.

Consider `NC(Cc1cc(O)c(O)cc1O)C(=O)O` (racemic) [6-hydroxy-DL-DOPA], for which the “IC50 (stated in words)” value is on record as “nanomolar range”.
As for `O=c1c(O)c(-c2cc(O)c(O)c(O)c2)oc2cc(O)cc(O)c12` [Myricetin], the “IC50 (stated in words)” value is given as “nanomolar range”.
Take `CC(C)c1ccc2c(c1)c(SC(C)(C)C)c(CC(C)(C)C(=O)[O-])n2Cc1ccc(Cl)cc1.[Na+]` [MK-886]: the “IC50 (stated in words)” value is given as “nanomolar range”.
